The values below come from patent US5597832A (Abbott Laboratories, priority 1994, dated 1997).

Assay [1] concerns the target T1, dopamine D-2 receptor (Rattus norvegicus, UniProt P61169).
T1 construct: Homogenized rat caudate was the source of the D-2 receptors; from tissue; host or cells: rat caudate homogenate
As to the kind of experiment: D-2 receptor competitive binding, [3H]-spiroperidol, homogenized rat caudate. As to conditions: rat caudate, [3H]-spiroperidol; read-out: D-2 Ki.

The test system of assay [2] is D-1 receptor. The assay can be described thus: Adenylate cyclase assay (agonist activity, cAMP). Format: biochemical, goldfish retina or rat striatum.
In assay [3] the target is dopamine D-1 receptor (Rattus norvegicus, UniProt P18901). The assay can be described thus: biochemical.
For assay [4], the system named is striatal dopamine receptors. The assay can be described thus: animal or person. Format: in vivo. To be noted: Rattus norvegicus, sc, read-out: EC50, rotation behavior.
Setting [5] is: goldfish retina or rat striatum homogenate.

Entries after “also recorded” stand apart in the source; their conditions may differ. Where a name gives a salt, the structure may show the parent alone. Read-outs that look alike come from different tables or passages of the source.

T1 sequence (P61169 whole entry): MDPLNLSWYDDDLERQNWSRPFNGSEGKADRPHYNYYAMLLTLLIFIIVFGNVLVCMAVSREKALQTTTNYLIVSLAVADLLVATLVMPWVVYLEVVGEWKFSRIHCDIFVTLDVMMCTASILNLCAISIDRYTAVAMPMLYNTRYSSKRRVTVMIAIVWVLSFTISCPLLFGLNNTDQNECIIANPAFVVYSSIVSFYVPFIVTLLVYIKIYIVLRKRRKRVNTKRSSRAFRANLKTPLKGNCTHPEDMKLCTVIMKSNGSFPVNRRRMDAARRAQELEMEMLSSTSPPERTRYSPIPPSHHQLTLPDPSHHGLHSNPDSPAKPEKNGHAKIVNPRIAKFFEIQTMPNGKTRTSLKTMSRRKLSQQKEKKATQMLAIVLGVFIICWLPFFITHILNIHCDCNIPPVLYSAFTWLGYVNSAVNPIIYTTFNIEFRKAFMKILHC
Chain of dopamine D-1 receptor (P18901 whole entry): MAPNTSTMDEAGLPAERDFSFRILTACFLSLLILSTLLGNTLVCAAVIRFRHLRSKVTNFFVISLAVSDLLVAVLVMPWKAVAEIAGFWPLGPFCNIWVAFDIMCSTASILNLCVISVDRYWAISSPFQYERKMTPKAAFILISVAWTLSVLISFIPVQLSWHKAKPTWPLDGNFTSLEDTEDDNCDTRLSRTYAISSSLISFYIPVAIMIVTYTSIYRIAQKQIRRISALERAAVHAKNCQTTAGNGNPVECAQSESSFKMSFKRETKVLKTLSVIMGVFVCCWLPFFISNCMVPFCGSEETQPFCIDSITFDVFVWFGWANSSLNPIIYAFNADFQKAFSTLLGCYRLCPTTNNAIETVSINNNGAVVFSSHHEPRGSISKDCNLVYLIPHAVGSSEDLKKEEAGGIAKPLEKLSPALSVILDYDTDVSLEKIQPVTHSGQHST

With `CCCCCCc1cc2c(s1)CN[C@@H]1CCc3cc(O)c(O)cc3[C@@H]21` (relative stereo) [Example 38, trans-2-Hexyl-4,5,5a,6,7,11b-hexahydro-3-thia-5-aza-cyclopent-1-ena[c]phenanthrene-9,10-diol TFA salt], the Ki amounted to 2580 nM in assay [1] and 1430 nM in assay [3]. Also, the “Intrinsic Activity (%)” value in assay [2] amounted to 58%. The same compound displayed an EC50 in assay [2] (setting [5]) of 285 nM.

`CCCc1cc2c(o1)CN[C@@H]1CCc3cc(O)c(O)cc3[C@@H]21` (relative stereo) [Example 41, trans-2-Propyl-4,5,5a,6,7,11b-hexahydro-3-oxa-5-aza-cyclopent-1-ena[c]phenanthrene-9,10-diol]: the inhibitory constant (Ki) in assay [1] worked out at 600 nM. Besides, in assay [2], the EC50 is 46 nM and the “Intrinsic Activity (%)” value came to 87%. Besides, the ED50 in assay [4] was determined as 0.07 µmol/kg. Besides, the Ki in assay [3] came to 21 nM.

Take `CCCc1cc2c(s1)CN[C@H]1CCc3cc(O)c(O)cc3[C@H]21` (single isomer, unassigned) [Example 20, (-)-trans-2-propyl-4,5,5a,6,7,11b-hexahydro-3-thia-5-aza-cyclopent-1-ena[c]phenanthrene-9,10-diol hydrobromide]: the ED50 in assay [4] worked out at 0.11 µmol/kg.

For the compound `Oc1cc2c(cc1O)[C@H]1c3cc(-c4ccccc4)oc3CN[C@@H]1CC2` (relative stereo) [Example 42, trans-2-Phenyl-4,5,5a,6,7,11b-hexahydro-3-oxa-5-aza-cyclopent-1-ena[c]phenanthrene-9,10-diol hydrochloride], the Ki in assay [1] was found to be 640 nM. For the same compound, in assay [2], the midpoint of the response, the EC50, lay at 78 nM and the “Intrinsic Activity (%)” value is on record as 59%. Moreover, the affinity in assay [3], expressed as Ki, was 453 nM.

Consider `CCCc1nc2c(s1)CN[C@@H]1CCc3cc(O)c(O)cc3[C@@H]21` (relative stereo) [Example 54, trans-2-propyl-4,5,5a,6,7,11b-hexahydro-1,5-diaza-3-thia-cyclopent-1-ena[c]phenanthrene-9,10-diol dihydrobromide], for which the figures for the Ki in assay [1] and in assay [3] were > 5000 nM and 220 nM, respectively. For the same compound, in assay [2], the “Intrinsic Activity (%)” value came out at 67%. This compound also had an EC50 in assay [2] (setting [5]) of 580 nM. In assay [4], the ED50 stood at 0.21 µmol/kg.

Consider `CCCc1nc2c(o1)[C@@H]1c3cc(O)c(O)cc3CC[C@H]1NC2` (relative stereo) [Example 29, trans-2-Propyl-4,5,5a,6,7,11b-hexahydro-1-oxa-3,5-diaza-cyclopent-2-ena[c]phenanthrene-9,10-diol dihydrobromide], for which, in assay [2], the midpoint of the response, the EC50, lay at 28 nM and the “Intrinsic Activity (%)” value was 81%. Further, the ED50 in assay [4] came to 0.41 µmol/kg.

`CC(C)(C)Cc1cc2c(s1)CN[C@H]1CCc3cc(O)c(O)cc3[C@H]21` (relative stereo) [Example 10, trans-2-(2,2-Dimethylpropyl)-4,5,5a,6,7,11b-hexahydro-3-thia-5-aza-cyclopent-1-ena[c]-phenanthrene-9,10-diol]: the values for the Ki in assay [1] and in assay [3] were 4600 nM and 560 nM, respectively. In addition, the “Intrinsic Activity (%)” value in assay [2] was 50%. In addition, the 50% effective concentration (EC50) in assay [2] (setting [5]) was determined as 216 nM.

Consider `Oc1cc2c(cc1O)[C@H]1c3cc(-c4cccs4)sc3CN[C@@H]1CC2` (relative stereo) [Example 37, trans-2-(2-Thiophenyl)-4,5,5a,6,7,11b-hexahydro-3-thia-5-aza-cyclopent-1-ena[c]phenanthrene-9,10-diol hydrobromide], for which the values for the Ki in assay [1] and in assay [3] were 3190 nM and 710 nM, respectively. Also, in assay [2], the “Intrinsic Activity (%)” value worked out at 65%. Moreover, in assay [2] (setting [5]), the EC50 stood at 332 nM.

For `CC(C)CCc1cc2c(s1)[C@@H]1c3cc(O)c(O)cc3CC[C@H]1NC2` (relative stereo) [Example 30, trans-2-(3-Methylbutyl)-4,5,5a,6,7,11b-hexahydro-1-thia-5-aza-cyclopent-2-ena[c]phenanthrene-9,10-diol hydrobromide], the Ki in assay [1] came out at 560 nM; in assay [3], 62 nM. Also, the “Intrinsic Activity (%)” value in assay [2] is 70%. Besides, the EC50 in assay [2] (setting [5]) amounted to 105 nM. Further, the ED50 in assay [4] is > 1 µmol/kg.

As to `CCc1cc2c(s1)CN[C@H]1CCc3cc(O)c(O)cc3[C@H]21` (single isomer, unassigned) [Example 4, (-)-trans-2-ethyl-4,5,5a,6,7,11b-hexahydro-3-thia-5-aza-cyclopent-1-ena[c]phenanthrene-9,10-diol hydrobromide], the ED50 in assay [4] amounted to 0.04 µmol/kg.

For “2-propyl-4,5,5a,6,7,11b-hexahydro-1-thia-5-aza-cyc! opent-2-ena[c]phenanthrene-10-ol hydrobromide [Example 44]”, in assay [2] (hydrobromide), the “agonist/antagonist properties at dopamine receptor” value is reported as “no agonist properties; also recorded: dopamine antagonist”.

On to `Oc1cc2c(cc1O)[C@@H]1c3sc(-c4ccccc4)cc3CN[C@H]1CC2` (relative stereo) [Example 19, trans-2-phenyl-4,5,5a,6,7,11b-hexahydro-1-thia-5-aza-cyclopent-2-ena[c]phenanthrene-9,10-diol hydrobromide], for which the Ki in assay [1] amounted to 750 nM. In assay [2], the EC50 was determined as 25 nM and the “Intrinsic Activity (%)” value was 79%. Further, in assay [3], the Ki turned out to be 360 nM.

Turning to `CCc1cc2c(s1)CN[C@H]1CCc3cc(O)c(O)cc3[C@H]21` (relative stereo) [Example 3, trans-2-ethyl-4,5,5a,6,7,11b-hexahydro-3-thia-5-aza-cyclopent-1-ena[c]phenanthrene-9,10-diol hydrobromide], the ED50 in assay [4] amounted to 0.077 µmol/kg.

Consider `CCCc1nc2c(s1)[C@H]1c3cc(O)c(O)cc3CC[C@@H]1NC2` (relative stereo) [Example 27, trans-2-propyl-4,5,5a,6,7,11b-hexahydro-1-thia-3,5-diaza-cyclopent-2-ena[c]phenanthrene-9,10-diol dihydrobromide], for which the Ki in assay [1] worked out at 210 nM; in assay [3], 11 nM. Moreover, in assay [2], the “Intrinsic Activity (%)” value was 93%. The EC50 in assay [2] (setting [5]) came out at 120 nM. In assay [4], the ED50 is > 1 µmol/kg.

Consider `CCCc1cc2c(s1)CN[C@H]1CCc3cc(O)c(O)cc3[C@H]21` (relative stereo) [Example 5, trans-2-propyl-4,5,5a,6,7,11b-hexahydro-3-thia-5-aza-cyclopent-1-ena[c]phenanthrene-9,10-diol hydrobromide], for which, in assay [4], the ED50 came out at 0.15 µmol/kg.

In the case of `CC(C)(C)c1cc2c(s1)CN[C@H]1CCc3cc(O)c(O)cc3[C@H]21` (single isomer, unassigned) [Example 24, (-)-trans-2-(1,1-Dimethylethyl)-4,5,5a,6,7,11b-hexahydro-3-thia-5-aza-cyclopent-1-ena[c]-phenanthrene-9,10-diol], in assay [4], the ED50 turned out to be 0.04 µmol/kg.

Turning to `CC(C)c1cc2c(s1)[C@@H]1c3cc(O)c(O)cc3CC[C@H]1NC2` (relative stereo) [Example 34, trans-2-Isopropyl-4,5,5a,6,7,11b-hexahydro-1-thia-5-aza-cyclopent-2-ena[c]phenanthrene-9,10-diol trifluoroacetate salt], the Ki in assay [1] was 420 nM. In assay [2], the EC50 was 16 nM and the “Intrinsic Activity (%)” value is listed as 80%. The ED50 in assay [4] was 0.04 µmol/kg. Further, the Ki in assay [3] is 4 nM.

As to `CCCc1nc2c(o1)CN[C@@H]1CCc3cc(O)c(O)cc3[C@@H]21` (relative stereo) [Example 53, trans-2-propyl-4,5,5a,6,7,11b-hexahydro-1,5-diaza-3-oxa-cyclopent-1-ena[c]phenanthrene-9,10-diol dihydrobromide], the Ki in assay [1] came to 230 nM; in assay [3] it was 154 nM. Also, in assay [2], the “Intrinsic Activity (%)” value was found to be 83%. Moreover, the EC50 in assay [2] (setting [5]) came out at 1000 nM.

As to `Cc1ccc(-c2cc3c(s2)CNC2CCc4cc(O)c(O)cc4C32)cc1` (stereo not drawn) [Example 46, 2-(4-Methylphenyl)-4,5,5a,6,7,11b-hexahydro-3-thia-5-aza-cyclopent-1-ena[c]phenanthrene-9,10-diol hydrobromide], the Ki in assay [1] and in assay [3] was > 5000 nM in each case.

With `Oc1cc2c(cc1O)[C@H]1c3cc(CC4CCCC4)sc3CN[C@@H]1CC2` (relative stereo) [Example 39, trans-2-(Cyclopentylmethyl)-4,5,5a,6,7,11b-hexahydro-3-thia-5-aza-cyclopent-1-ena[c]phenanthrene-9,10-diol hydrobromide], the values for the inhibition constant Ki in assay [1] and in assay [3] were 1620 nM and 450 nM, respectively. For the same compound, the “Intrinsic Activity (%)” value in assay [2] is listed as 93%. For the same compound, the concentration giving a half-maximal response (EC50) in assay [2] (setting [5]) is 110 nM.

For the compound `Cc1cc2c(s1)CN[C@H]1CCc3cc(O)c(O)cc3[C@H]21` (relative stereo) [Example 22, trans-2-methyl-4,5,5a,6,7,11b-hexahydro-3-thia-5-aza-cyclopent-1-ena[c]phenanthrene-9,10-diol hydrobromide], in assay [4], the ED50 is 0.2 µmol/kg.

In the case of `Cc1cc2c(s1)CN[C@H]1CCc3cc(O)c(O)cc3[C@H]21` (single isomer, unassigned) [Example 23, (-)-trans-2-Methyl-4,5,5a,6,7,11b-hexahydro-3-thia-5-aza-cyclopent-1-ena[c]-phenanthrene-9,10-diol], the ED50 in assay [4] is 0.05 µmol/kg.

On to `CCCc1cc2c(s1)CNC1CCc3cc(OC(C)=O)c(OC(C)=O)cc3C21` (single isomer, unassigned; (-)) [Example 48, (-)-trans-9,10-Diacetyloxy-2-propyl-4,5,5a,6,7,11b-hexahydro-3-thia-5-aza-cyclopent-1-ena[c]phenanthrene hydrochloride], for which, in assay [4], the ED50 was found to be 0.04 µmol/kg.

As for `CCCc1csc2c1CN[C@@H]1CCc3cc(O)c(O)cc3[C@@H]21` (relative stereo) [Example 52, trans-3-propyl-4,5,5a,6,7,11b-hexahydro-1-thia-5-aza-cyclopent-2-ena[c]phenanthrene-9,10-diol hydrochloride], the ED50 in assay [4] turned out to be 0.32 µmol/kg.

In the case of `CC(C)(C)c1cc2c(s1)CN[C@H]1CCc3cc(O)c(O)cc3[C@H]21` (relative stereo) [Example 6, trans-2-(1,1-dimethylethyl)-4,5,5a,6,7,11b-hexahydro-3-thia-5-aza-cyclopent-1-ena[c]phenanthrene-9,10-diol hydrobromide], the ED50 in assay [4] was 0.12 µmol/kg.
